Here are results for 25 compounds from patent US9359297B2, “Spirolactam derivatives and uses of same” (H. Lundbeck A/S, priority 2009, dated 2016).

Experiment [1] addresses mGluR5 (allosteric site, [3H]MPEP) (Homo sapiens, UniProt P41594). Nature of the experiment: [3H]MPEP radioligand filtration binding assay on membrane homogenates. As to conditions: 5 nM [3H]MPEP; Ki from IC50 by Cheng and Prusoff equation. On the procedure:
Binding assays were performed as described in [J. A. O'Brien et al. Mol. Pharmacol., 2003, 64, 731-740] with slight modifications. Briefly, after thawing, the membrane homogenates were resuspended in 50 mM Tris-HCl, 0.9% NaCl binding buffer at pH 7.4 to a final assay concentration of 40 μg protein/well for [^3H]2-methyl-6-phenylethynyl-pyridine ([^3H] MPEP) (American Radiolabeled Chemicals, Inc., St. Louis, Mo.) filtration binding. Incubations included 5 nM [^3H] MPEP, membranes and either buffer or varying concentrations of compound. Samples were incubated for 60 min at room temperature with shaking. Non-specific binding was defined with 10 μM MPEP. After incubation, samples were filtered over a GF/C filter (presoaked in 0.25% polyethyleneimine (PEI)) and then washed 4 times using a Tomtec® Harvester 96® Mach III cell harvester (Tomtec, Hamden, Conn.) with 0.5 mL ice-cold 50 mM Tris-HCl (pH 7.4).
IC50 values were derived from the inhibition curve and Ki values were calculated according to the Cheng and Prusoff equation of Ki=IC50/(1+[L]/Kd) described in [Y. Cheng and W. H. Prusoff Biochem. Pharmacol. 1973, 22, 3099-3108] where [L] is the concentration of radioligand and Kd is its dissociation constant at the receptor, derived from the saturation isotherm.

The target in experiment [2] is T1, rat metabotropic glutamate receptor 5 (rmGluR5) (Rattus norvegicus, UniProt P31424).
T1 construct: expressed in transfected cells
T1 sequence (P31424 21-1203): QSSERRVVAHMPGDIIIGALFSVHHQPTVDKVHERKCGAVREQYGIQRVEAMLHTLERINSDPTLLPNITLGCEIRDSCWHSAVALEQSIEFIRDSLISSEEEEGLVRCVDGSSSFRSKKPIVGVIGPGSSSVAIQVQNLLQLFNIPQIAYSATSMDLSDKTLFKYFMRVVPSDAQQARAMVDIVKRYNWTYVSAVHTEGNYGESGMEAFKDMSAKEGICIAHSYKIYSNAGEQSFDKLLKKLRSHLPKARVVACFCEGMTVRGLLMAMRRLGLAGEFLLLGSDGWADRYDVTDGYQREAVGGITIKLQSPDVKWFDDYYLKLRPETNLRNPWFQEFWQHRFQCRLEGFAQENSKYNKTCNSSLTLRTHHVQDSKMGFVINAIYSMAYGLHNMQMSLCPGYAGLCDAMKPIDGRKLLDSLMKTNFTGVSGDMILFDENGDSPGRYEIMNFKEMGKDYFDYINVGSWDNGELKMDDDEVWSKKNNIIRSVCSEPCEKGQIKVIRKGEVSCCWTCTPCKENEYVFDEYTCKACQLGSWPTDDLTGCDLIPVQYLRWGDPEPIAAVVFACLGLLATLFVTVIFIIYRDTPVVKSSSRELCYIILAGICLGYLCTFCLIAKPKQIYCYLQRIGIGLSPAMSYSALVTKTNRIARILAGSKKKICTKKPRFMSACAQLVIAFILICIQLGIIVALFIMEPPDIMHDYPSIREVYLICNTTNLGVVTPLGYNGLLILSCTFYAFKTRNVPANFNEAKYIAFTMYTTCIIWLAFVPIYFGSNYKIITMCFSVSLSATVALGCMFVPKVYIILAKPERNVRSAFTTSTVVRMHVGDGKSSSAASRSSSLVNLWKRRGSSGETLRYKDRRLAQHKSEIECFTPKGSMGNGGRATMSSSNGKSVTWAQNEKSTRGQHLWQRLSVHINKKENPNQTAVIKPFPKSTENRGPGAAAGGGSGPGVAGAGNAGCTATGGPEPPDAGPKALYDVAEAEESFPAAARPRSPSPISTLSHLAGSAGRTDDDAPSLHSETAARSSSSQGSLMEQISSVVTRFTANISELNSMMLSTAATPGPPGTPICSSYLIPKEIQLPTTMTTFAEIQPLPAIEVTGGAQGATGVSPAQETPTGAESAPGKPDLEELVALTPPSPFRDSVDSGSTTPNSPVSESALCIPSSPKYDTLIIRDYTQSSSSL
Nature of the experiment: Calcium mobilization (FLIPR) assay for negative allosteric modulation, EC80 glutamate, rmGluR5 in HEK 293. The format is cell-based. As to conditions: HEK293; rmGluR5, inhibition of EC80 glutamate response; read-out: FLIPR maximum inhibition. On the procedure: The cDNA for rat metabotropic glutamate receptor 5 (rmGluR5) and the cDNA for human metabotropic glutamate receptor 5 (hmGluR5) were generous gifts from S. Nakanishi (Kyoto University, Kyoto, Japan). The rmGluR5 or hmGluR5 was stably expressed in a HEK 293 cell line and grown in Dulbecco's Modified Eagle Medium (DMEM) (Invitrogen, Carlsbad, Calif.) with supplements (10% bovine calf serum, 4 mM glutamine, 100 units/mL penicillin, 100 μg/mL streptomycin and 0.75 mM G1418) at 37° C., 5% CO2. Twenty-four hours prior to assay, cells were seeded into 384-well black wall microtiter plates coated with poly-D-lysine. Just prior to assay, media was aspirated and cells dye-loaded (25 μL/well) with 3 μM Fluo-4/0.01% pluronic acid in assay buffer (Hank's Balanced Saline Solution (HBSS)): 150 mM NaCl, 5 mM KCl, 1 mM CaCl2, 1 mM MgCl2, plus 20 mM N-2-Hydroxyethylpiperazine-N′-2-ethanesulfonic acid (HEPES), pH 7.4, 0.1% bovine serum albumin (BSA) and 2.5 mM probenicid) for 1 hour in 5% CO2 at 37° C. After excess dye was discarded, cells were washed in assay buffer and layered with a final volume equal to 30 μL/well. Basal fluorescence is monitored in a fluorometric imaging plate reader (FLIPR) (Molecular Devices, Sunnyvale, Calif.) with an excitation wavelength of 488 nm and an emission range of 500 to 560 nm. Laser excitation energy was adjusted so that basal fluorescence readings were approximately 10,000 relative fluorescent units. Cells were stimulated with an EC20 or an EC80 concentration of glutamate in the presence of a compound to be tested, both diluted in assay buffer, and relative fluorescent units were measured at defined intervals (exposure=0.6 sec) over a 3 min period at room temperature. Basal readings derived from negative controls were subtracted from all samples. Maximum change in fluorescence was calculated for each well. Concentration-response curves derived from the maximum change in fluorescence were analyzed by nonlinear regression (Hill equation). A negative modulator can be identified from these concentration-response curves if a compound produces a concentration dependent inhibition of the EC80 glutamate response.

mGluR5 (allosteric site, [3H]MPEP), sequence (P41594 21-1212): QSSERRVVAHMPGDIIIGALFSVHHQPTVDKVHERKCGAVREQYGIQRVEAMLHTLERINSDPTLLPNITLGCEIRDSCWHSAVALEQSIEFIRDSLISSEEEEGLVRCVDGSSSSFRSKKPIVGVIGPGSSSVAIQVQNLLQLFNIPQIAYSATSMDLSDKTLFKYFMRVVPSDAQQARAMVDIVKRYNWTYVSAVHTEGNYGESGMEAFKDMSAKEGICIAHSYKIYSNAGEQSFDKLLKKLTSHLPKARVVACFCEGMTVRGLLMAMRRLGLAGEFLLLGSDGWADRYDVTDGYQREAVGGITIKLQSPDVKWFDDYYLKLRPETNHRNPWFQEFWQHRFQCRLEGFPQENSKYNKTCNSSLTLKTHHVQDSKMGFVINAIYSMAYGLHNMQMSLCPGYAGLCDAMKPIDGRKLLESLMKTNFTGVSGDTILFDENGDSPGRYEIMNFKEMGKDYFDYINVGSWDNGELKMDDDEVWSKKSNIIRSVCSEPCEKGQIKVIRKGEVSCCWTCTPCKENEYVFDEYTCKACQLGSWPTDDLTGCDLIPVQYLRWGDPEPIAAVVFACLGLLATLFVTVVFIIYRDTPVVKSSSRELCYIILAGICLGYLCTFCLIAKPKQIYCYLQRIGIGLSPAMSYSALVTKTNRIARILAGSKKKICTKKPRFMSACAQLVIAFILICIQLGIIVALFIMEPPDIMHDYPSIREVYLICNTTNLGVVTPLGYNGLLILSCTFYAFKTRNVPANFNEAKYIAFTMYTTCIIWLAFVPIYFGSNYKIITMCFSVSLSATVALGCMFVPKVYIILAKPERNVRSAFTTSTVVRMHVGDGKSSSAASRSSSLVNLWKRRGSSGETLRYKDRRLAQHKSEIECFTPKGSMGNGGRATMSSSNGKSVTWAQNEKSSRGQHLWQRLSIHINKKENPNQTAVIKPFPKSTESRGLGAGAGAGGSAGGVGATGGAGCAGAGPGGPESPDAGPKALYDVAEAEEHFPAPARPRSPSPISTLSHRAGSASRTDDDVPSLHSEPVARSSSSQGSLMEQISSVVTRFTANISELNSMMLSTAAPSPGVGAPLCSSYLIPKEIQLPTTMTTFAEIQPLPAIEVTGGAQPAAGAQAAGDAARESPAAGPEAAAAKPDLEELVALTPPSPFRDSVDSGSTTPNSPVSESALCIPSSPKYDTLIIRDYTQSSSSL

In the case of `O=C(N[C@H]1CCC[C@]2(CCN(c3cccc(Cl)c3)C2=O)C1)c1ccccn1` (racemic) [Example 2, cis-pyridine-2-carboxylic acid [2-(3-chloro-phenyl)-1-oxo-2-aza-spiro[4.5]dec-7-yl]-amide], in experiment [1], the affinity, expressed as Ki, was 0.25 µM. For the same compound, the Emax in experiment [2] lay in the range of 81 to 99%. As for `Cc1cccc(C(=O)N[C@H]2CCC[C@]3(CCN(c4cccc(Cl)c4)C3=O)C2)n1` (relative stereo) [Example 4, cis-6-Methyl-pyridine-2-carboxylic acid [2-(3-chloro-phenyl)-1-oxo-2-aza-spiro[4.5]dec-7-yl]-amide], the inhibitory constant (Ki) in experiment [1] was 0.074 µM. Besides, the Emax in experiment [2] lay within 81 to 99%. On to `O=C(N[C@H]1CCC[C@]2(CCN(c3cc(F)ccn3)C2=O)C1)c1cccc(F)c1` (relative stereo) [Example 36, cis-3-Fluoro-N-[2-(4-fluoro-pyridin-2-yl)-1-oxo-2-aza-spiro[4.5]dec-7-yl]-benzamide], for which, in experiment [2], the Emax is 81 to 99%. Still for that read-out and setting: with `Cc1ccnc(N2CC[C@]3(CCC[C@H](NC(=O)c4cccc(F)c4)C3)C2=O)n1` (relative stereo) [Example 37, cis-3-Fluoro-N-[2-(4-methyl-pyrimidin-2-yl)-1-oxo-2-aza-spiro[4.5]dec-7-yl]-benzamide] the figure was 81 to 99%. As for `Cc1cncc(N2CC[C@]3(CCC[C@H](NC(=O)c4cccc(F)c4)C3)C2=O)n1` (relative stereo) [Example 38, cis-3-Fluoro-N-[2-(6-methyl-pyrazin-2-yl)-1-oxo-2-aza-spiro[4.5]dec-7-yl]-benzamide], the Emax in experiment [2] fell in the range of 81 to 99%. Same read-out and setting: with `Cc1cncc(N2CC[C@]3(CCC[C@H](NC(=O)c4ccccn4)C3)C2=O)n1` (relative stereo) [Example 39, cis-Pyridine-2-carboxylic acid [2-(6-methyl-pyrazin-2-yl)-1-oxo-2-aza-spiro [4.5]dec-7-yl]-amide] the figure was 81 to 99%; with `Cc1cccc(C(=O)N[C@H]2CCC[C@]3(CCN(c4cncc(C)n4)C3=O)C2)n1` (relative stereo) [Example 40, cis-6-Methyl-pyridine-2-carboxylic acid [2-(6-methyl-pyrazin-2-yl)-1-oxo-2-aza-spiro[4.5]dec-7-yl]-amide], 81 to 99%; with `Cc1cccc(C(=O)N[C@H]2CCC[C@]3(CCN(c4cccc(C#N)n4)C3=O)C2)n1` (relative stereo) [Example 43, cis-6-Methyl-pyridine-2-carboxylic acid [2-(6-cyano-pyridin-2-yl)-1-oxo-2-aza-spiro[4.5]dec-7-yl]-amide], 81 to 99%.

Regarding `Cc1cccc(C(=O)N[C@H]2CCC[C@]3(CCN(c4ccccc4)C3=O)C2)n1` (relative stereo) [Example 46, cis-6-Methyl-pyridine-2-carboxylic acid (1-oxo-2-phenyl-2-aza-spiro[4.5]dec-7-yl)-amide], the Emax in experiment [2] was in the range of 81 to 99%. As for `Cc1cccc(N2CC[C@]3(CCC[C@H](NC(=O)c4cccc(C)n4)C3)C2=O)c1` (relative stereo) [Example 47, cis-6-Methyl-pyridine-2-carboxylic acid (1-oxo-2-m-tolyl-2-aza-spiro[4.5]dec-7-yl)-amide], the Emax in experiment [2] lay within 81 to 99%. Still for that read-out and setting: with `Cc1ccnc(N2CC[C@]3(CCC[C@H](NC(=O)c4cccc(C)n4)C3)C2=O)c1` (relative stereo) [Example 48, cis-6-Methyl-pyridine-2-carboxylic acid [2-(4-methyl-pyridin-2-yl)-1-oxo-2-aza-spiro[4.5]dec-7-yl]-amide] the figure was 81 to 99%; with `Cc1ccc(N2CC[C@]3(CCC[C@H](NC(=O)c4cccc(C)n4)C3)C2=O)nc1` (relative stereo) [Example 49, cis-6-Methyl-pyridine-2-carboxylic acid [2-(5-methyl-pyridin-2-yl)-1-oxo-2-aza-spiro[4.5]dec-7-yl]-amide], 81 to 99%; with `Cc1cccc(C(=O)N[C@H]2CCC[C@]3(CCN(c4ncccc4C)C3=O)C2)n1` (relative stereo) [Example 50, cis-6-Methyl-pyridine-2-carboxylic acid [2-(3-methyl-pyridin-2-yl)-1-oxo-2-aza-spiro[4.5]dec-7-yl]-amide], 81 to 99%. On the same count and under the same terms, with `Cc1cccc(C(=O)N[C@H]2CCC[C@]3(CCN(c4ccccc4F)C3=O)C2)n1` (relative stereo) [Example 51, cis-6-Methyl-pyridine-2-carboxylic acid [2-(2-fluoro-phenyl)-1-oxo-2-aza-spiro[4.5]dec-7-yl]-amide] the figure was 81 to 99%; with `Cc1cc(N2CC[C@]3(CCC[C@H](NC(=O)c4cccc(C)n4)C3)C2=O)ccn1` (relative stereo) [Example 52, cis-6-Methyl-pyridine-2-carboxylic acid [2-(2-methyl-pyridin-4-yl)-1-oxo-2-aza-spiro[4.5]dec-7-yl]-amide], 81 to 99%; with `N#Cc1cccc(N2CC[C@]3(CCC[C@H](NC(=O)c4cccc(F)c4)C3)C2=O)n1` (relative stereo) [Example 53, cis-N-[2-(6-Cyano-pyridin-2-yl)-1-oxo-2-aza-spiro[4.5]dec-7-yl]-3-fluoro-benzamide], 81 to 99%. The same measure, in the same setting: with `O=C(N[C@H]1CCC[C@]2(CCN(c3cc(F)cc(F)c3)C2=O)C1)c1ccccn1` (relative stereo) [Example 54, cis-Pyridine-2-carboxylic acid [2-(3,5-difluoro-phenyl)-1-oxo-2-aza-spiro [4.5]dec-7-yl]-amide] the figure was 81 to 99%. Regarding `Cc1cncc(C(=O)N[C@H]2CCC[C@]3(CCN(c4cc(F)cc(F)c4)C3=O)C2)n1` (relative stereo) [Example 55, cis-6-Methyl-pyrazine-2-carboxylic acid [2-(3,5-difluoro-phenyl)-1-oxo-2-aza-spiro [4.5]dec-7-yl]-amide], in experiment [2], the Emax fell in the range of 81 to 99%. In the case of `O=C(N[C@H]1CCC[C@]2(CCN(c3cc(F)cc(F)c3)C2=O)C1)c1cnccn1` (relative stereo) [Example 56, cis-Pyrazine-2-carboxylic acid [2-(3,5-difluoro-phenyl)-1-oxo-2-aza-spiro [4.5]dec-7-yl]-amide], in experiment [2], the Emax is 81 to 99%. With `Cc1nccc(C(=O)N[C@H]2CCC[C@]3(CCN(c4ccc(F)cn4)C3=O)C2)n1` (relative stereo) [Example 57, cis-2-Methyl-pyrimidine-4-carboxylic acid [2-(5-fluoro-pyridin-2-yl)-1-oxo-2-aza-spiro [4.5]dec-7-yl]-amide], the Emax in experiment [2] lay within 81 to 99%. In the case of `O=C(N[C@H]1CCC[C@]2(CCN(c3cccc(Cl)c3)C2=O)C1)c1ccccn1` (single isomer, unassigned) [Example 6], the Emax in experiment [2] was in the range of 81 to 99%. Turning to `O=C(N[C@H]1CCC[C@@]2(CCN(c3cccc(Cl)c3)C2=O)C1)c1ccccn1` [Example 1, trans-Pyridine-2-carboxylic acid [2-(3-chloro-phenyl)-1-oxo-2-aza-spiro[4.5]dec-7-yl]amide], the Emax in experiment [2] lay in the range of 81 to 99%.

Consider `Cc1cccc(N2CCC3(CCCC(NC(=O)c4cccc(Cl)c4)C3)C2=O)n1` (stereo not drawn) [Example 8, 3-Chloro-N-[2-(6-methyl-pyridin-2-yl)-1-oxo-2-aza-spiro[4.5]dec-7-yl]-benzamide], for which the Emax in experiment [2] lay in the range of 81 to 99%.

Regarding `Cc1cccc(N2CC[C@@]3(CCC[C@@H](NC(=O)c4cccc(F)c4)C3)C2=O)n1` [Example 28, 3-Fluoro-N-[(5R,7R)-2-(6-methyl-pyridin-2-yl)-1-oxo-2-aza-spiro[4.5]dec-7-yl]-benzamide], the Emax in experiment [2] is 81 to 99%. For the compound `Cc1cccc(C(=O)N[C@H]2CCC[C@]3(CCN(c4ccccn4)C3=O)C2)n1` [Example 45, 6-Methyl-pyridine-2-carboxylic acid (1-oxo-2-pyridin-2-yl-2-aza-spiro[4.5]dec-7-yl)-amide], in experiment [2], the Emax lay within 81 to 99%.
